Results as given in the NIST ThermoML archive (doi:10.1021/je800998u).

Details: for molar entropy / mass density: 101.33 kPa; for molar entropy: Small (less than 1 g) adiabatic calorimetry; for mass density: Pycnometric method; for vapor or sublimation pressure: Ebulliometric method (Recirculating still); for Triple point temperature: Adiabatic calorimetry

CC(C)COCC(C)C [diisobutyl ether]
Details	mass density [kg/m3]	molar entropy [J/K/mol]	vapor or sublimation pressure [kPa]
10 K, Crystal 2	–	0.4387	–
15 K, Crystal 2	–	2.36	–
20 K, Crystal 2	–	5.506	–
25 K, Crystal 2	–	9.633	–
30 K, Crystal 2	–	14.45	–
35 K, Crystal 2	–	19.69	–
40 K, Crystal 2	–	25.17	–
45 K, Crystal 2	–	30.79	–
50 K, Crystal 2	–	36.49	–
55 K, Crystal 2	–	42.24	–
60 K, Crystal 2	–	48.03	–
65 K, Crystal 2	–	53.84	–
70 K, Crystal 2	–	59.61	–
75 K, Crystal 2	–	65.3	–
80 K, Crystal 2	–	70.92	–
85 K, Crystal 2	–	76.51	–
90 K, Crystal 2	–	82.09	–
95 K, Crystal 2	–	87.65	–
100 K, Crystal 2	–	93.17	–
110 K, Crystal 2	–	104	–
120 K, Crystal 2	–	114.8	–
130 K, Crystal 2	–	125.4	–
140 K, Crystal 2	–	135.9	–
150 K, Crystal 2	–	146.4	–
160 K, Crystal 2	–	157.1	–
170.71 K, Crystal 1	–	179.1	–
170.71 K, Crystal 2	–	168.6	–
180 K, Crystal 1	–	188.8	–
190.4 K, Crystal 1	–	200.4	–
190.4 K, Liquid	–	259.9	–
200 K, Liquid	–	272.1	–
210 K, Liquid	–	284	–
220 K, Liquid	–	295.5	–
230 K, Liquid	–	306.6	–
240 K, Liquid	–	317.3	–
250 K, Liquid	–	327.8	–
260 K, Liquid	–	338	–
270 K, Liquid	–	348	–
280 K, Liquid	–	357.7	–
290 K, Liquid	–	367.2	–
298.06 K, Liquid	748.62	–	–
298.07 K, Liquid	748.49	–	–
298.09 K, Liquid	748.45	–	–
298.14 K, Liquid	748.69	–	–
298.15 K, Liquid	–	374.8	–
298.18 K, Liquid	748.69	–	–
298.22 K, Liquid	748.09	–	–
300 K, Liquid	–	376.5	–
302.68 K, Liquid	743.72	–	–
302.73 K, Liquid	744.19	–	–
302.79 K, Liquid	743.67	–	–
302.81 K, Liquid	744.14	–	–
302.83 K, Liquid	743.5	–	–
302.86 K, Liquid	743.47	–	–
310 K, Liquid	–	385.6	–
312.72 K, Liquid	733.67	–	–
312.95 K, Liquid	733.53	–	–
312.99 K, Liquid	733.64	–	–
313.02 K, Liquid	733.56	–	–
313.03 K, Liquid	734	–	–
320 K, Liquid	–	394.6	–
330 K, Liquid	–	403.5	–
330.9 K, Liquid	–	–	10.75
336.08 K, Liquid	–	–	13.37
340 K, Liquid	–	412.1	–
341.66 K, Liquid	–	–	16.76
347.21 K, Liquid	–	–	20.79
350 K, Liquid	–	420.8	–
352.09 K, Liquid	–	–	24.97
357.89 K, Liquid	–	–	30.79
360 K, Liquid	–	429.3	–
363.27 K, Liquid	–	–	37.12
369.46 K, Liquid	–	–	45.66
370 K, Liquid	–	437.7	–
375.78 K, Liquid	–	–	55.91
381.77 K, Liquid	–	–	67.26
388.15 K, Liquid	–	–	81.3
392.78 K, Liquid	–	–	92.88
393.58 K, Liquid	–	–	95
394.37 K, Liquid	–	–	97.12
395.14 K, Liquid	–	–	99.28

Details	Triple point temperature [K]
Crystal 1	190.4
Crystal 2	170.71
